The values below come from patent US11766414B2, “Compositions, delivery systems, and methods useful in tumor therapy” (Indi Molecular, Inc., priority 2020, dated 2023).

Starred links: 1 amine or outer side, 2 acyl side, 3 side chain; linkers in the order of their positions; H or OH if unused. Positions of bridges follow the written chain, without caps; N, C: chain ends. Non-standard residues stand in square brackets, D forms with d. Residues, ends and D or L forms follow the SMILES beside them. Triazole bridges read from a SMILES are 1,4-linked. *: point of attachment. DOTA = O=C(O)CN1CCN(CC(=O)O)CCN(CC(=O)*)CCN(CC(=O)O)CC1; Pteroyl = Nc1nc2ncc(CNc3ccc(C(=O)*)cc3)nc2c(=O)[nH]1; Butanoyl(4-(4-MePh)) = Cc1ccc(CCCC(=O)*)cc1; Lys(N3) = [N-]=[N+]=NCCCC[C@H](N)C(=O)O; γGlu = O=C(O)[C@H](CCC(=O)[*:2])N[*:1]; AEEEA = NCCOCCOCCOCC(=O)O; Pra = C#CC[C@H](N)C(=O)O

Series [1] relates to OVCAR3 (FOLR1+) tumor bearing NSG mice. The note with it: mouse, in vivo. The procedure: Female, 7-week-old NSG mice were housed under pathogen-free conditions. Water and food were provided ad libitum. To create mice with FOLR1+ ovarian xenograft tumors, mice were injected subcutaneously with OVCAR3 cells (1×10^7 cells per mouse) resuspended in 50% Matrigel in PBS into the shoulder region. Tumor growth was monitored by caliper measurements. OVCAR3 is a human ovarian adenocarcinoma known to over-express FOLR1.
^68Ga PET imaging was used to study in vivo biodistribution of heterobiligands in non-tumor bearing (healthy) mice and OVCAR3 tumor bearing mice. 100-200 μCi of [^68Ga]DOTA-labeled heterobiligand was administered intravenously (i.v.) via the tail vein of each mouse. […]
Evaluation of a folate-hshta (SEQ ID NO:6) Nterm heterobiligand bearing both an albumin binder and DOTA chelator in PET was a priority, given that DOTA can accommodate both ^68Ga for imaging and ^177Lu for radiotherapy. […] The time-course biodistribution of ^68Ga-labeled folate-hshta-PEG3-Lys(MPBA)-Lys(DOTA) (SEQ ID NO:6) (compound #2809) was calculated to quantify the uptake in major organs including the tumor (FIG. 17). […] Larger tumors (490 mm^3) were also evaluated with the ^68Ga-chelated PET probe.
Biodistribution was initially evaluated by PET imaging, as the time frame for a significant portion of clearance is roughly similar to the time frame of PET imaging experiments. […]

A further series relates to mouse plasma proteins. In words: Plasma protein binding, CD-1 mouse plasma. Type of series: in vitro ADME. The note with it: CD-1 mouse plasma. The procedure:
(§1) HTD 96 a/b regenerated cellulose membrane strips with mass cutoff of 12-14 kDa were soaked in ultra-pure water at room temperature for 1 hour. Each swelled membrane was then soaked in 20:80 ethanol:water for 20 minutes.
(§2) Just prior to the experiment, the membranes were re-soaked in ultra-pure water. Plasma was prepared by thawing under cold water. The plasma was centrifuged to remove any clots and pH was adjusted to 7.0-8.0. Test articles and control compounds were diluted to 2 μM. The dialysis device was loaded by transferring 150 μL of the test article (in triplicate) to the donor side. The dialysis device was placed in a humidified incubator at 37° C. with 5% CO2 in a shaking platform that rotated slowly for 4 hours. After incubation, 50 μL of the supernatant was taken from both sides and analyzed by LC-MS/MS.

Another series relates to human plasma proteins. Kind of series: Plasma protein binding, human plasma. Type of series: in vitro ADME. The following applies: human plasma. How it is done:
as §1, §2

For `C[C@H](O)[C@H]1NC(=O)[C@@H](Cc2cnc[nH]2)NC(=O)[C@@H](CO)NC(=O)[C@@H](Cc2cnc[nH]2)NC(=O)[C@@H](NC(=O)CC[C@H](NC(=O)c2ccc(NCc3cnc4nc(N)[nH]c(=O)c4n3)cc2)C(=O)O)Cc2cn(nn2)CCCC[C@@H](C(=O)NCC(=O)N[C@@H](Cc2ccccc2)C(=O)N[C@@H](CCCCNC(=O)CN2CCN(CC(=O)O)CCN(CC(=O)O)CCN(CC(=O)O)CC2)C(=O)O)NC(=O)[C@@H](C)NC1=O` [Indi ^68Ga-7327, metal not drawn] ({Pteroyl-γGlu}-[Pra][dH][dS][dH][dT][dA][Lys(N3)]GFK(DOTA)-OH; triazole 1-7), in series [1], the “kidney uptake (PET)” value is listed as “significant reduction in kidney uptake”.

Take `C[C@@H](O)[C@@H]1NC(=O)[C@H](CCCCN)NC(=O)[C@@H](Cc2c[nH]c3ccccc23)NC(=O)[C@H](Cc2ccccc2)NC(=O)[C@@H](NC(=O)[C@H](N)Cc2ccccc2)CSSC[C@@H](C(=O)N[C@H](CO)[C@@H](C)O)NC1=O` [Octreotide Acetate, reference compound]: in the series with mouse plasma proteins, the “Plasma % Bound, Mu” value was found to be 62.36% and the “Plasma protein binding % Recovery, Mu” value came out at 84.5%. Moreover, in the series with human plasma proteins, the “Plasma % Bound, Hu” value is 59.41% and the “Plasma protein binding % Recovery, Hu” value was determined as 84.3%.

As to `Cc1ccc(CCCC(=O)NCCCC[C@H](NC(=O)COCCOCCOCCNC(=O)[C@@H]2CCCCn3cc(nn3)C[C@H](NC(=O)CC[C@H](NC(=O)c3ccc(NCc4cnc5nc(N)[nH]c(=O)c5n4)cc3)C(=O)O)C(=O)N[C@H](Cc3c[nH]cn3)C(=O)N[C@H](CO)C(=O)N[C@H](Cc3c[nH]cn3)C(=O)N[C@H]([C@H](C)O)C(=O)N[C@H](C)C(=O)N2)C(=O)N[C@@H](CCCCNC(=O)CN2CCN(CC(=O)O)CCN(CC(=O)O)CCN(CC(=O)O)CC2)C(N)=O)cc1` [^68Ga-chelated compound #2809, metal not drawn] ({Pteroyl-γGlu}-[Pra][dH][dS][dH][dT][dA][Lys(N3)][AEEEA]K(Butanoyl(4-(4-MePh)))K(DOTA)-NH2; triazole 1-7), the “accumulation within the tumor” value in series [1] (iv, 200 uCi, 4 h) is reported as ~2.2 % of the injected dose/cc.
